Experiment [1] deals with KB-V1 (MDR1++). The experiment is described as follows: Cell survival assay (SRB), KB-V1 (MDR1++). The note with it: for IC50: Homo sapiens.
Experiment [2] relates to KB-8-5 (MDR1+). Nature of the experiment: Cell survival assay (SRB), KB-8-5 (MDR1+). The note with it: for IC50: Homo sapiens, MDR1, read-out: In vitro IC50 (nM) KB85.
Experiment [3] concerns KB-3-1. The experiment is described as follows: Cell survival assay (SRB), KB-3-1. The note with it: Homo sapiens, KB 3-1, KB-3-1 cells (paclitaxel-sensitive parent); read-out: In vitro IC50 (nM) KB-3-1. The format is cell-based, human. In short, it runs like this: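 Growth inhibition (IC50) is derived from SRB-measured protein content after a 3-day, duplicate exposure to serially diluted compound.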

The mark [4] stands for this setting: read-out: In vitro IC50 (nM) KBV1.

Where two headings read alike, the source gives them in different places.

One may read the IC50 as the concentration that gives 50% inhibition. In the case of `CCN[C@H](C(=O)N[C@H](C(=O)N(C)[C@H](/C=C(\C)C(=O)OCC)C(C)C)C(C)(C)C)C(C)(C)c1ccccc1` [Example 31, N-Ethyl-β,β-dimethylphenylalanyl-N^1-[(1S,2E)-4-ethoxy-1-isopropyl-3-methyl4-oxo-2-butenyl]-N^1,3-dimethyl-L-valinamide], in experiment [1], the “Ratio KBV1/KB” value is on record as 6.9. Also, the IC50 in experiment [1] (setting [4]) is ≥ 3000 nM; in experiment [2] it was 1860 nM; in experiment [3] it was 436 nM. Also, the “Ratio KB85/KB” value in experiment [2] is reported as 4.3.

`CN[C@H](C(=O)N[C@H](C(=O)N(C)[C@H](/C=C(\C)C(=O)O)C(C)C)[C@H](C)OC)C(C)(C)c1ccccc1` [Example 88, N,β,β-trimethyl-L-phenylalanyl-N^1-[(1S,2E)-3-carboxy-1-isopropyl-2-butenyl]-N^1,O-dimethyl-L-allothreoninamide]: the “Ratio KBV1/KB” value in experiment [1] turned out to be 3.4. The IC50 was ≥ 3000 nM in experiment [1] (setting [4]), 1740 nM in experiment [2] and 871 nM in experiment [3]. In experiment [2], the “Ratio KB85/KB” value is on record as 2.0.

As to `CN[C@H](C(=O)N[C@H](C(=O)N(C)[C@H](/C=C(\C)C(=O)NCCC#N)C(C)C)C(C)(C)C)C(C)(C)c1ccccc1` [Example 109, N,β,β-trimethyl-L-phenylalanyl-N^1-{(1S,2E)-4-[(2-cyanoethyl)amino]-1-isopropyl-3-methyl-4-oxo-2-butenyl}-N^1,3-dimethyl-L-valinamide], the “Ratio KBV1/KB” value in experiment [1] is recorded as 23.3. Also, the IC50 in experiment [1] (setting [4]) was ≥ 3000 nM; in experiment [2] it was 435 nM; in experiment [3], 129 nM. For the same molecule, the “Ratio KB85/KB” value in experiment [2] was determined as 3.4.

For `CN[C@H](C(=O)N[C@@H](C(=O)N(C)[C@H](/C=C(\C)C(=O)O)C(C)C)C(C)(C)F)C(C)(C)c1ccccc1` [Example 148, N,β,β-trimethyl-L-phenylalanyl-N^1-[(1S,2E)-3-carboxy-1-isopropylbut-2′enyl]-3-fluoro-N^1-methyl-D-valinamide], the “Ratio KBV1/KB” value in experiment [1] is given as 34.1. The results for the IC50 in experiment [1] (setting [4]), in experiment [2] and in experiment [3] were > 3000 nM, 193 nM and 88 nM, respectively. In addition, the “Ratio KB85/KB” value in experiment [2] was determined as 2.2.

On to `CN[C@H](C(=O)N[C@H](C(=O)N(C)[C@H](/C=C(\C)C(=O)O)C(C)C)C(C)(C)C)C1(c2ccccc2)CCCC1` [Example 71, (2E,4S)-2,5-dimethyl-4-(methyl{3-methyl-N-[(2S)-2-(methylamino)-2-(1-phenylcyclopentyl)ethanoyl]-L-valyl}amino)-2-hexenoic acid], for which the “Ratio KBV1/KB” value in experiment [1] came to 21.2. Further, the figures for the IC50 in experiment [1] (setting [4]), in experiment [2] and in experiment [3] were ≥ 3000 nM, 186 nM and 141 nM, respectively. Moreover, the “Ratio KB85/KB” value in experiment [2] was found to be 1.3.

Take `CCOC(=O)/C(C)=C/[C@H](C(C)C)N(C)C(=O)[C@@H](NC(=O)[C@@H](NC)C(C)(C)c1cccc(Cl)c1)C(C)(C)C` [Example 1a, 3-Chloro-N,β,β-trimethyl-L-phenylalanyl-N^1-[(1S,2E)4-ethoxy-1-isopropyl-3-methyl-4-oxo-2-butenyl]-N^1,3-dimethyl-L-valinamide]: in experiment [1], the “Ratio KBV1/KB” value stood at 5.3. Also, the IC50 in experiment [1] (setting [4]) is ≥ 3000 nM; in experiment [2], 1740 nM; in experiment [3], 562 nM. The “Ratio KB85/KB” value in experiment [2] is recorded as 3.1.

Take `CN[C@H](C(=O)N[C@H](C(=O)N(C)[C@H](C[C@H](C)C(=O)O)C(C)C)C(C)(C)C)C(C)(C)c1ccccc1` [Example 123, N,β,β-trimethyl-L-phenylalanyl-N^1-[(1R,3S)-3-carboxy-1-isopropylbutyl]-N^1,3-dimethyl-L-valinamide]: the IC50 in experiment [1] (read-out: In vitro IC50 KBV1) is > 3000 nM; in experiment [2] it was 537 nM; in experiment [3], 891 nM. Besides, in experiment [2], the “Ratio KB85/KB” value is listed as 0.6.

On to `CCOC(=O)/C(C)=C/[C@H](C(C)C)N(C)C(=O)[C@@H](NC(=O)[C@H](NC)C(C)(C)c1cccc(C)c1)C(C)(C)C` [Example 7b, N,β,β,3-tetramethyl-D-phenylalanyl-N^1-[(1S,2E)-4-ethoxy-1-isopropyl-3-methyl4-oxo-2-butenyl]-N^1,3-dimethyl-L-valinamide], for which the “Ratio KBV1/KB” value in experiment [1] was 11.4. Also, the IC50 in experiment [1] (setting [4]) was ≥ 3000 nM; in experiment [2], 1700 nM; in experiment [3] it was 263 nM. Moreover, in experiment [2], the “Ratio KB85/KB” value came out at 6.5.

`CN[C@H](C(=O)N[C@H](C(=O)N(C)[C@H](/C=C(\C)C(=O)O)C(C)C)C(C)(C)C)C(C)(C)c1cccc(C(C)=O)c1` [Example 155, 3-acetyl-N,β,β-trimethyl-L-phenylalanyl-N^1-[(1S,2E)-3-carboxy-1-isopropylbut-2-enyl]-N^1,3-dimethyl-L-valinamide]: the “Ratio KBV1/KB” value in experiment [1] was 206. In addition, the IC50 in experiment [1] (setting [4]) was determined as 370 nM; in experiment [2] it was 5.8 nM; in experiment [3] it was 1.8 nM. In experiment [2], the “Ratio KB85/KB” value is listed as 3.2.

Consider `CN[C@H](C(=O)N[C@H](C(=O)N[C@H](/C=C(\C)C(=O)O)C(C)C)C(C)(C)C)C(C)(C)c1ccccc1.O=C(O)C(F)(F)F` [Example 101, N,β,β-trimethyl-L-phenylalanyl-N^1-[(1S,2E)-3-carboxy-1-isopropylbut-2-enyl]-3-methyl-L-valinamide Trifluoroacetic Acid], for which, in experiment [1], the “Ratio KBV1/KB” value was found to be 69.6. Further, the values for the IC50 in experiment [1] (setting [4]), in experiment [2] and in experiment [3] were ≥ 3000 nM, 139 nM and 43.1 nM, respectively. The “Ratio KB85/KB” value in experiment [2] was 3.2.

As to `CCC[C@H](NC(=O)[C@@H](NC)C(C)(C)c1ccccc1)C(=O)N(C)[C@H](/C=C(\C)C(=O)O)C(C)C.O=C(O)C(F)(F)F` [Example 97, N,β,β-trimethyl-L-phenylalanyl-N^1-[(1S,2E)-3-carboxy-1-isopropylbut-2-enyl]-N^1-methyl-L-norvalinamide Trifluoroacetic Acid], the “Ratio KBV1/KB” value in experiment [1] was found to be 38.3. Further, the values for the IC50 in experiment [1] (setting [4]), in experiment [2] and in experiment [3] were 575 nM, 19 nM and 15 nM, respectively. Besides, in experiment [2], the “Ratio KB85/KB” value worked out at 1.3.

As for `CN[C@H](C(=O)N[C@H](C(=O)N(C)[C@H](/C=C(\C)C(=O)O)C(C)C)C(C)(C)C)C(C)(C)c1cc2ccccc2s1` [Example 28, 3-(1-Benzothien-2-yl)-N-methylvalyl-N^1-[(1S,2E)-3-carboxy-1-isopropyl-2-butenyl]-N^1,3-dimethyl-L-valinamide], the “Ratio KBV1/KB” value in experiment [1] worked out at 54.4. Further, the results for the IC50 in experiment [1] (setting [4]), in experiment [2] and in experiment [3] were 139 nM, 4.6 nM and 2.55 nM, respectively. Besides, the “Ratio KB85/KB” value in experiment [2] amounted to 1.8.

As for `CCC(CC)(c1ccccc1)[C@@H](NC)C(=O)N[C@H](C(=O)N(C)[C@H](/C=C(\C)C(=O)O)C(C)C)C(C)(C)C` [Example 126, β,β-diethyl-N-methyl-D-phenylalanyl-N^1-[(1S,2E)-3-carboxy-1-isopropylbut-2-enyl]-N^1,3-dimethyl-L-valinamide], the “Ratio KBV1/KB” value in experiment [1] is recorded as 63.3. Further, the IC50 came out at 1140 nM in experiment [1] (setting [4]), 23 nM in experiment [2] and 18 nM in experiment [3]. The “Ratio KB85/KB” value in experiment [2] came to 1.3.

For `CN[C@@H](C(=O)N[C@H](C(=O)N(C)[C@H](/C=C(\C)C(=O)O)C(C)C)C(C)(C)C)C(C)(C)c1cccc(F)c1` [Example 61, 3-Fluoro-N,β,β-trimethyl-D-phenylalanyl-N^1-[(1S,2E)-3-carboxy-1-isopropyl-2-butenyl]-N^1,3-dimethyl-L-valinamide], the “Ratio KBV1/KB” value in experiment [1] came to 79.4. Further, the IC50 in experiment [1] (setting [4]) was found to be 1000 nM; in experiment [2] it was 18.6 nM; in experiment [3], 12.6 nM. In experiment [2], the “Ratio KB85/KB” value came to 1.5.

For the molecule `CCCC[C@@H](/C=C(\C)C(=O)O)N(C)C(=O)[C@@H](NC(=O)[C@@H](NC)C(C)(C)c1ccccc1)C(C)(C)C` [Example 75, N,β,β-Trimethyl-L-phenylalanyl-N^1-[(1S,2E)-1-butyl-3-carboxybut-2-enyl]-N^1,3-dimethyl-L-valinamide], the “Ratio KBV1/KB” value in experiment [1] was determined as 60.0. The figures for the IC50 in experiment [1] (setting [4]), in experiment [2] and in experiment [3] were 2130 nM, 78 nM and 36 nM, respectively. For the same molecule, the “Ratio KB85/KB” value in experiment [2] stood at 2.2.

As to `CN[C@H](C(=O)N[C@H](C(=O)N(C)[C@H](/C=C(\C)C(=O)O)C(C)C)C(C)(C)C)C(C)(C)c1ccc(C(=O)O)cc1` [Example 45, 4-carboxy-N,β,β-trimethylphenylalanyl-N^1-[(1S,2E)-3-carboxy-1-isopropylbut-2-enyl]-N^1,3-dimethyl-L-valinamide], the IC50 in experiment [1] (read-out: In vitro IC50 KBV1) is > 3000 nM; in experiment [2], 1530 nM; in experiment [3], 680 nM. Moreover, the “Ratio KB85/KB” value in experiment [2] is reported as 2.3.

Turning to `CN[C@H](C(=O)N[C@H](C(=O)N(C)[C@H](/C=C(\C)C(=O)O)C(C)C)C(C)(C)F)C(C)(C)c1ccccc1` [Example 149, N,β,β-trimethyl-L-phenylalanyl-N^1-[(1S,2E)-3-carboxy-1-isopropylbut-2-enyl]-3-fluoro-N^1-methyl-L-valinamide], the IC50 amounted to 117 nM in experiment [1] (setting [4]), 3.5 nM in experiment [2] and 1.6 nM in experiment [3]. For the same molecule, in experiment [2], the “Ratio KB85/KB” value was 2.2.

For `CN[C@H](C(=O)N[C@H](C(=O)N(C)[C@H](/C=C(\C)C(=O)O)C(C)C)C(C)(C)SCc1ccc(OC)cc1)C(C)(C)c1ccccc1` [Example 82, N,β,β-trimethyl-L-phenylalanyl-N^1-[(1S,2E)-3-carboxy-1-isopropyl-2-butenyl]-3-[(4-methoxybenzyl)sulfanyl]-N^1-methyl-L-valinamide], the “Ratio KBV1/KB” value in experiment [1] is 40.1. In addition, the IC50 in experiment [1] (setting [4]) turned out to be 2360 nM; in experiment [2], 100 nM; in experiment [3], 59 nM. Moreover, the “Ratio KB85/KB” value in experiment [2] turned out to be 1.7.
